This is an account of results in US20080096943A1, “Organic Compunds” (priority 2004, published 2008).

The assay has as its target T1, human CCR-3 (Homo sapiens, UniProt P51677).
T1 construct: expressed in transfected cells; membranes used
T1 sequence (P51677 1-355): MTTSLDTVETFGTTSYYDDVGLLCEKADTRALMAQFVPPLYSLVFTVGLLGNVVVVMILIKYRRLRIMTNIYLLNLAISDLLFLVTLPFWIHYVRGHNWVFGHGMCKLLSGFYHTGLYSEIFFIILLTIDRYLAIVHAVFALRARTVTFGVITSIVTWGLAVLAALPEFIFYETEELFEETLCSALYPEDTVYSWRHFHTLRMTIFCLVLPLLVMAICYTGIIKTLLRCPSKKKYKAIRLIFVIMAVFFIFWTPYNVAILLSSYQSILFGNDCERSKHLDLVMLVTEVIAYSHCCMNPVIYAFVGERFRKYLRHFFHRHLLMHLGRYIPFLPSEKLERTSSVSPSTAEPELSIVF
Nature of the assay: [125I]-human eotaxin binding to CCR-3, SPA assay. Particulars: inhibition of [125I]-human eotaxin binding; membranes of RBL-2H3 cells stably expressing CCR3; 4 hours at room temperature. The source says: Recombinant cells expressing human CCR-3 are captured by wheatgerm agglutinin (WGA) polyvinyltoluidene (PVT) SPA beads (available from Amersham), through a specific interaction between the WGA and carbohydrate residues of glycoproteins on the surface of the cells. [^125I]-human eotaxin (available from Amersham) binds specifically to CCR-3 receptors bringing the [^125I]-human eotaxin in close proximity to the SPA beads. Emitted â-particles from the [^125I]-human eotaxin excite, by its proximity, the fluorophore in the beads and produce light.
Preparation of Assay Buffer: 5.96 g HEPES and 7.0 g sodium chloride are dissolved in distilled water and 1 M aqueous CaCl2 (1 ml) and 1M aqueous MgCl2 (5 ml) are added. The pH is adjusted to 7.6 with NaOH and the solution made to a final volume of 1 l using distilled water. 5 g bovine serum albumin and 0.1 g sodium azide are then dissolved in the solution and the resulting buffer stored at 4° C. […]
Preparation of membranes: Confluent rat basophil leukaemia (RBL-2H3) cells stably expressing CCR3 are removed from tissue culture flasks using enzyme-free cell dissociation buffer and resuspended in phosphate-buffered saline. […] The resulting scintillations are counted using a Canberra Packard TOPCOUNT™ scintillator counter, each well being counted for 1 minute. […]

By IC50 is commonly meant the concentration that inhibits the measured activity by half. Read a low IC50 as greater potency in that assay. As to `Cc1noc(C)c1NC(=O)NCCCCN(C)Cc1ccc(F)cc1` [Example 1, 1-(3,5-Dimethyl-isoxazole-4-yl)-3-[4-[(4-fluorobenzyl)methylamino]-butyl]-urea], the IC50 was 1540 nM.
Take `CN(CCCCNC(=O)Nc1ccc(F)c(F)c1)Cc1ccc(F)cc1` [Example 2, 1-(3,4-difluorophenyl)-3-{4-[(4-fluorobenzyl)methylamino]-butyl}-urea]: the IC50 stood at 49 nM.
